Data reported in patent publication US20220218693A1, “IMMUNE CHECKPOINT INHIBITOR COMBINATION THERAPY USING QUINOLINE CARBOXAMIDE DERIVATIVE” (KABUSHIKI KAISHA YAKULT HONSHA, priority 2019, published 2022).

Experiments:
Type in all cases: in vivo, BALB/c mice
[1] = test system: mouse bowel cancer cell line CT26 cells; experiment: Antitumor effect of combined administration in CT26 tumor-bearing mice (Example 1); settings: FIG. 1
Description: Six-week-old female BALB/c mice (72 mice) were purchased from Japan SLC, Inc., conditioned and raised for 5 days in University of Shizuoka, Experimental Animal Center, and then used for experiments.
Hair on a back part and ventral parts of the BALB/c mouse was shaved, and 1×10^6 mouse bowel cancer cell line CT26 cells (ATCCs) were subcutaneously transplanted in each of the left and right ventral parts (day 0). Five days after the transplantation, the longer diameter (mm) and the shorter diameter (mm) of the tumor were measured using a digital caliper (A&D Company, Limited), and a tumor volume was calculated. […]
An average of the tumor volumes on the left and the right was calculated for each individual, and on the basis of the thus-obtained value, the mice were divided into eight groups (nine mice in each group) in such a manner that the variations in tumor volume between individuals in the groups were the same. […]
The evaluation item was an average of the tumor volumes on the left and the right in each individual. From day 5, the longer diameter (mm) and the shorter diameter (mm) of the tumor were measured at an interval of one day or two days using a digital caliper. […] An average of the tumor volumes on the left and the right was calculated for each individual. […]

[2] = test system: mouse bowel cancer cell line CT26 cells; experiment: Antitumor effect of combined administration in CT26 tumor-bearing mice (Example 2); settings: STX-1159 40 mg/kg p.o. days 6, 8 and 10 + PD-1 Ab 50 μg/mouse i.p. days 8, 10 and 13; compared with either agent alone; FIG. 2
Description: (§1) Six-week-old female BALB/c mice were purchased from Japan SLC, Inc., conditioned and raised for about a week in University of Shizuoka, Experimental Animal Center, and then used for experiments.
(§2) Hair on a back part and ventral parts of the BALB/c mouse was shaved, and 1×10^6 mouse bowel cancer cell line CT26 cells (ATCCs) were subcutaneously transplanted in each of the left and right ventral parts (day 0). Six days after the transplantation, the longer diameter (mm) and the shorter diameter (mm) of the tumor were measured using a digital caliper (A&D Company, Limited), and a tumor volume was calculated. The expression for calculation of the tumor volume was as follows: tumor volume (mm^3)=0.5×(longer diameter mm)×(shorter diameter mm)^2. An average of the tumor volumes on the left and the right was calculated for each individual, and on the basis of the thus-obtained value, the mice were divided into groups in such a manner that the variations in tumor volume between individuals in the groups were the same.
STX-1159 was orally administered at 40 mg/kg three times every other day. […]
The evaluation item was an individual tumor volume. From day 6, the longer diameter (mm) and the shorter diameter (mm) of the tumor were measured at an interval of one to four days using a digital caliper. […]

[3] = test system: mouse fibrosarcoma CMS5a cells; experiment: Antitumor effect of combined administration in CMS5a tumor-bearing mice (Example 3); settings: STX-1159 40 mg/kg p.o. days 5 to 9 + PD-1 Ab 200 μg/mouse i.p. days 12, 14 and 16; t-test versus control; FIG. 3
Description: as §1
as §2, with “fibrosarcoma CMS5a” for “bowel cancer cell line CT26”, “cells” for “cells (ATCCs)”, “Five” for “Six”
STX-1159 was orally administered at 40 mg/kg continuously for five days. […]
The evaluation item was an individual tumor volume. From day 5, the longer diameter (mm) and the shorter diameter (mm) of the tumor were measured at an interval of one or two days using a digital caliper. […]

O=C(Nc1nnc(-c2ccco2)o1)c1cc(-c2ccccc2)nc2ccc(OC(F)(F)F)cc12 [STX-1159, N-[5-(2-furyl)-1,3,4-oxadiazol-2-yl]-2-phenyl-6-trifluoromethoxy-4-quinoline carboxamide]
antitumor effect (tumor volume) ([1]; STX-1159 40 mg/kg p.o. days 5 to 9 in advance + PD-1 Ab 50 μg/mouse i.p. days 12, 14 and 16, compared with simultaneous and later administration groups): much higher antitumor effect
antitumor effect (tumor volume) ([1]; simultaneous: STX-1159 40 mg/kg p.o. days 12 to 16 + PD-1 Ab 50 μg/mouse i.p. days 12, 14 and 16, compared with each single-agent group): antitumor effect was lower
antitumor effect (tumor volume) [2]: much higher antitumor effect
tumor shrinkage (tumor volume) versus control group [3]: showed more significant tumor shrinkage over the control group
